Measurements from patent EP0563345B1, “NOVEL 4-ARYLPIPERAZINES AND 4-ARYLPIPERIDINES” (MCNEILAB, INC., priority 1991, dated 1993).
pKi: −log10 of the molar value. Like-named read-outs stand apart in the source and are kept apart here.

Experiments:
Male, Fischer 344 rats = test: Block of Conditioned Avoidance Responding (Rat) test (CAR); details: for CAR 5 mg/kg IP Administration (% change CAR) / CAR 15 mg/kg IP Administration (% change CAR): negative number = blockade of CAR; for CAR IP Administration (% change CAR) at 30 mg/kg: 30 mg/kg IP
Source text: Apparatus: Rat operant chambers, housed within sound attenuated booths, both from Capden Instruments Ltd., were used in this test. The test chamber (8" H x […] D) is constructed of aluminum and plexiglass with floor grid bars of stainless-steel (1/8" O.D.) spaced 9/16" apart. A stainless-steel operation level 1-1/2" wide projects 3/4" into the chamber and is positioned 2-2/8" above the grid floor. The shock stimulus is delivered via the grid floor by a Coulbourn Instruments solid state module. The parameters of the test and the collection of data are controlled automatically.
The rats are trained for two weeks to approach criterion levels in the avoidance test (90% avoidance rate). One-hour training sessions are run at about the same time each day for four or five days a week. The training session consists of 120 trials, with the conditioned stimuli presented every 30 sec. A trial begins with presentation of the conditioned stimuli (a light and a tone). If the rat responds by depressing the operant lever during the 15-second presentation of the conditioned stimuli, the trial is terminated and the animal is credited with a CAR. Failure to respond during the conditioned stimuli causes the presentation of the unconditioned stimulus (UCS), a 0.7 mA shock which is accompanied by a light and tone for five seconds. If the rat depressed the lever within the ten-second period, the shock and trial are terminated and an escape response recorded. If the rat fails to depress the lever during the UCS (shock), the trial is terminated after ten seconds of shock and the absence of a response is scored as a failure to escape. Intertrial level presses have no effect. If a rat performs at the 90% CAR level for two weeks, it is then run twice a week on the test schedule (see below) until baseline performance stabilized.
Trained rats are run in a one-hour session on two consecutive days at the same time and in the same test chamber each day. The sessions consist of 60 trials, one every minute. The conditioned stimuli are presented for 15 sec (maximum) and the unconditioned stimuli five sec (maximum). On Day 1, a vehicle solution is administered to the rats at a time preceding the trial run corresponding to the pretreatment time for the test compound. The route of administration and the volume of vehicle are also matched to that of the test compound.
The percent change in CAR on the drug treatment day compared to vehicle pretreatment day is the key measure. The percent change (% change) in CAR is determined using the following formula: % change CAR = ((% CAR for Day 2/% CAR for Day 1) x 100)-100 [formula]
A negative number indicates a blockade of CAR, whereas a positive number would indicate increased CAR. The test results are reported as the mean % change for the group of rats. Failure to escape, a measure of the general sedative potential of the compound, was calculated for each animal as follows: % Failures = # of Failures to Escape/# of trials [formula]
The % failures, viz., loss of escape, is also reported as a group mean. Failures to escape are monitored closely and a session is terminated if ten failures occurred.
In the Tables and formulas therein, OiPr is isopropoxy, Me is methyl, MeO is methoxy, Et is ethyl, Ph is phenyl, n-Bu is normal butyl, cC6H11 is cyclohexyl, BOC is t-butyloxycarbonyl, Ac is acetyl, and NT is not tested in that partcular test. The escape loss numbers are shown at CAR 5 mg/kg unless otherwise noted.

Male Charles-River rats = test: Rat Glass Bead Test (propulsive motility of the distal colon); type: in vivo; details: mean expulsion time of glass bead
Protocol: The rat glass bead test is used to evaluate the action of compounds on propulsive motility of the distal colon. Male Charles-River rats weighing 50-90 grams are fasted for at least 18 hours in individual cages with water provided. Groups of rats are then dosed by the indicated route at the appropriate pretreatment time. A 4 mm glass bead is then inserted 3.5 cm into the distal colon through the anus using a 4 mm diameter glass rod. Rats are then placed in open top glass jars and observed for 60 minutes. The time for expulsion of the bead is noted for each rat. Rats not expelling the bead after 60 minutes are necropsied and the presence of the bead in the colon confirmed. […] Statistical analysis is done using one way analysis of variance and Fisher's LSD comparison. A probability of less than 0.05 is considered to be statistically significant.

[1] = target: T1, D-2 (dopamine-2) receptors (Rattus norvegicus, UniProt P61169); test: biochemical; type: binding, male, Wistar rats; details: for Ki: rat striatum P2 fraction, 3H-spiperone 0.05 nM, read-out: Receptor Binding (Ki nM) D2
T1 construct: The D2 assay employed a P2 fraction from the striatum, the ligand ^3H-spiperone at a concentration of 0.05 nM; from tissue; host or cells: rat striatum, P2 fraction (synaptosomal membranes), male Wistar rats
Protocol: The dopamine D2 binding activity of compounds was determined using a P2 fraction (synaptosomal membranes) prepared from male, Wistar rats.
The data from this assay were analyzed by calculating the percent inhibition of the binding of the tritiated ligands by given concentrations of the test compound. Kl values, where given, were obtained from the logit analysis of concentration-inhibition curves.

T1 sequence (P61169 whole entry): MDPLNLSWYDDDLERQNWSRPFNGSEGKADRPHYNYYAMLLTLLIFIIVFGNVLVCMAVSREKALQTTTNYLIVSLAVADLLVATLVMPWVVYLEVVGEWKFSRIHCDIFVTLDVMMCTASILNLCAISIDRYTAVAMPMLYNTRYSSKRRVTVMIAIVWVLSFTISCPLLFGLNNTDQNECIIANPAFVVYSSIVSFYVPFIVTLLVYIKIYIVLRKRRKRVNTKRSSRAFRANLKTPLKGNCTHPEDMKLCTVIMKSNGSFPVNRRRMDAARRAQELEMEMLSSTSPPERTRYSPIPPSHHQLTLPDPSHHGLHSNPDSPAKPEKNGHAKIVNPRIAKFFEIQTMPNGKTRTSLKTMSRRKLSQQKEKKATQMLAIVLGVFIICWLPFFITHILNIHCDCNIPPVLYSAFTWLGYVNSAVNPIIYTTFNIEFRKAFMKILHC

Row | Structure (SMILES) | CAR 5 mg/kg IP Administration (% change CAR) (Male, Fischer 344 rats) [%] | (Escape Loss) % failures to escape (Male, Fischer 344 rats; at CAR 5 mg/kg IP) [%] | Ki [1] [nM] | further results
1 | O=C(c1cccc(CN2CCN(c3nsc4ccccc34)CC2)c1)N1CCCCC1 [Compound 32] | -90 | 8 |  | Glass bead expulsion time (Male Charles-River rats; IP, 1.0 mg/kg): 41 min
2 | O=C(c1cccc(CN2CCN(c3cccc4ccccc34)CC2)c1)N1CCCCC1 [Compound 35] |  |  |  | CAR 15 mg/kg IP Administration (% change CAR) (Male, Fischer 344 rats): -19%; (Escape Loss) % failures to escape (Male, Fischer 344 rats; at CAR 15 mg/kg IP): 0%; Glass bead expulsion time (Male Charles-River rats; PO, 10.0 mg/kg): 19 min
3 | CC(C)Oc1ccccc1N1CCN(Cc2cccc(C(=O)N(C)CCc3ccccc3)c2)CC1 [Compound 43] |  |  | 19 | CAR 15 mg/kg IP Administration (% change CAR) (Male, Fischer 344 rats): -77%; (Escape Loss) % failures to escape (Male, Fischer 344 rats; at CAR 15 mg/kg IP): 0%
4 | CC(C)Oc1ccccc1N1CCN(Cc2cccc(C(=O)N3CCC(=O)CC3)c2)CC1 [Compound 44] | -68 | 16 |  | pKi [1]: 7.38
5 | CC(C)Oc1ccccc1N1CCN(Cc2cccc(C(=O)N3CCC4(CC3)OCCO4)c2)CC1 [Compound 45] | -95 | 20 |  | pKi [1]: 7.70
6 | COc1ccc(OC)c(N2CCN(Cc3cccc(C(=O)N4CCCCC4)c3)CC2)c1 [Compound 46] | -66 | 48 | 592 | 
7 | CC(C)Oc1ccccc1N1CCN(Cc2cccc(C(=O)N3CCN(c4ccccc4OC(C)C)CC3)c2)CC1 [Compound 50] | 0 | 1 | 171 | 
8 | CC(C)Oc1ccccc1N1CCN(Cc2cccc(C(=O)N3CCOCC3)c2)CC1 [Compound 56] |  |  |  | Glass bead expulsion time (Male Charles-River rats; IP, 1.0 mg/kg): 15 min
9 | CC(C)Oc1ccccc1N1CCN(Cc2cccc(C(=O)N3CCC4CCCCC4C3)c2)CC1 (stereo not shown) [Compound 61] | -36 | 3 | 11.4 | 
10 | CC(C)Oc1ccccc1N1CCN(Cc2cccc(C(=O)N3CCN(Cc4ccccc4)CC3)c2)CC1 [Compound 64] |  |  | 40 | CAR IP Administration (% change CAR) at 30 mg/kg (Male, Fischer 344 rats): -23%; (Escape Loss) % failures to escape (Male, Fischer 344 rats; at CAR 30 mg/kg IP): 2%
11 | CC(C)Oc1ccccc1N1CCN(Cc2cccc(C(=O)N3CCCCCCC3=O)c2)CC1 [Compound 67] | -28 | 7 | 10.2 | 
12 | CC(C)Oc1ccccc1N1CCN(Cc2cccc(C(=O)N(C)Cc3ccccc3)c2)CC1 [Compound 74] | -23 | 1 | 13 | 
13 | CC(C)Oc1ccccc1N1CCN(Cc2cccc(C(=O)Nc3ccc(F)cc3)c2)CC1 [Compound 75] |  |  | ~30 | CAR IP Administration (% change CAR) at 30 mg/kg (Male, Fischer 344 rats): -1%; (Escape Loss) % failures to escape (Male, Fischer 344 rats; at CAR 30 mg/kg IP): 0%
14 | CCN1CCCC1CNC(=O)c1cccc(CN2CCN(c3ccccc3OC(C)C)CC2)c1 (stereo not shown) [Compound 76] |  |  | 13.9 | CAR 15 mg/kg IP Administration (% change CAR) (Male, Fischer 344 rats): -75%; (Escape Loss) % failures to escape (Male, Fischer 344 rats; at CAR 15 mg/kg IP): 0%
15 | O=C(c1cccc(CN2CCN(c3cc(Cl)cc(Cl)c3)CC2)c1)N1CCCCC1 [Compound 94] | -43 | 3 | 21 | 
16 | CC(C)Oc1ccccc1N1CCN(Cc2cccc(C(=O)NCCCCCCN)c2)CC1 [Compound 97] |  |  | 15 | CAR 15 mg/kg IP Administration (% change CAR) (Male, Fischer 344 rats): -99%; (Escape Loss) % failures to escape (Male, Fischer 344 rats; at CAR 15 mg/kg IP): 26%
17 | CC(C)Oc1ccccc1N1CCN(Cc2cccc(C(=O)NCCCCCCNC(=O)OC(C)(C)C)c2)CC1 [Compound 98] |  |  | 88 | CAR 15 mg/kg IP Administration (% change CAR) (Male, Fischer 344 rats): -8%; (Escape Loss) % failures to escape (Male, Fischer 344 rats; at CAR 15 mg/kg IP): 0%
18 | CC(C)Oc1ccccc1N1CCN(Cc2cccc(S(=O)(=O)N3CCCC3)c2)CC1 [Compound 106] | -27 | 0 | 196 | 
19 | CC(C)Oc1ccccc1N1CCN(Cc2cccc(S(=O)(=O)N3CCC(O)CC3)c2)CC1 [Compound 107, 1-[3-[[4[2-(1-Methylethoxy)phenyl]-1-piperazinyl]methyl]phenylsulfonyl]-4-hydroxypiperidine] | -95 | 5 | 69 | 
